Test results: ChEMBL document CHEMBL4673379 (ACS Med Chem Lett, 2021)

Legend:
Vero = assay: Cytotoxicity against African green monkey Vero cells assessed as reduction in cell growth by coulter counter analysis; format: cell-based; conditions: chlorocebus sabaeus
SARS-CoV-2 [1] = assay: Antiviral activity against SARS-CoV-2 UC-1075 infected in African green monkey Vero cells assessed as reduction in virus plaque formation measured on day 5 post-viral infection by microscopic analysis; format: functional, organism-based; conditions: Severe acute respiratory syndrome coronavirus 2, UC-1075, Vero, 120 h
[2] = Cytotoxicity against African green monkey Vero cells assessed as alteration in cell morphology by microscopic analysis; format: cell-based; conditions: chlorocebus sabaeus
SARS-CoV-2 [3] = assay: Antiviral activity against SARS-CoV-2 UC-1074 infected in African green monkey Vero cells assessed as reduction in virus plaque formation measured on day 5 post-viral infection by microscopic analysis; format: functional, organism-based; conditions: Severe acute respiratory syndrome coronavirus 2, UC-1074, Vero, 120 h
[4] = Cytotoxicity against human HEL cells assessed as alteration in cell morphology incubated for 3 days by microscopic analysis; format: cell-based; conditions: time 3 day
Human betaherpesvirus 5 [5] = assay: Antiviral activity against Human cytomegalovirus Davis infected in human HEL cells assessed as reduction in virus plaque formation measured on 6 to 7 post-viral infection; format: functional, cell-based; conditions: Human betaherpesvirus 5, Davis
Human alphaherpesvirus 3 [6] = assay: Antiviral activity against thymidine kinase positive Varicella zoster virus OKA infected in human HEL cells assessed as reduction in virus plaque formation measured on day 5 post-viral infection; format: functional, organism-based; conditions: Human alphaherpesvirus 3, OKA, 120 h
Human alphaherpesvirus 3 [7] = assay: Antiviral activity against thymidine kinase deficient Varicella zoster virus 07-1 infected in human HEL cells assessed as reduction in virus plaque formation measured on day 5 post-viral infection; format: functional, organism-based; conditions: Human alphaherpesvirus 3, 07-1, HEL, 120 h
Human betaherpesvirus 5 [8] = assay: Antiviral activity against Human cytomegalovirus AD169 infected in human HEL cells assessed as reduction in virus plaque formation measured on day 6 to 7 post-viral infection; format: functional, cell-based; conditions: Human betaherpesvirus 5, AD169, HEL, 144 h
[9] = Selectivity index, ratio of CC50 for human HEL cells to EC50 for antiviral activity against thymidine kinase positive Varicella zoster virus OKA infected in human HEL cells; format: toxicity, cell-based; conditions: read-out: Ratio CC50/EC50
SARS-CoV-2 [10] = assay: Antiviral activity against SARS-CoV-2 infected in African green monkey Vero cells assessed as reduction in virus plaque formation measured on day 5 post-viral infection by microscopic analysis relative to remdesivir; format: functional, Severe acute respiratory syndrome coronavirus 2; conditions: time 5 day
[11] = Selectivity index, ratio of CC50 for African green monkey Vero cells to EC50 for antiviral activity against SARS-CoV-2 UC-1075 infected in African green monkey Vero cells; format: toxicity; conditions: read-out: Ratio CC50/EC50
[12] = Selectivity index, ratio of CC50 for human HEL cells to EC50 for antiviral activity against thymidine kinase deficient Varicella zoster virus 07-1 infected in human HEL cells; format: toxicity, cell-based; conditions: read-out: Ratio CC50/EC50
HEL = assay: Cytotoxicity against human HEL cells assessed as reduce in cell growth incubated for 3 days by coulter counter analysis; format: cell-based; conditions: 72 h, time 3 day
Enterovirus C = assay: Antiviral activity against Polio virus Mahoney infected in human HeLa cells assessed as inhibition of viral replication incubated for 2 days by luminescence analysis; format: functional, organism-based; conditions: 48 h
Influenza A virus = assay: Antiviral activity against Influenza A virus (A/Puerto Rico/8/34(H1N1)) expressing NS116-GFP infected in human RPE cells assessed as inhibition of viral replication measured after 24 hrs by luminescence based assay; format: functional, organism-based; conditions: A/Puerto Rico/8/1934(H1N1), HRPE
rhinovirus A1B = assay: Antiviral activity against Human rhinovirus 1B infected in human HeLa cells assessed as inhibition of virus-induced cytopathicity measured after 2 days by SRB method; format: functional, organism-based; conditions: Rhinovirus A, 48 h
Zika virus = assay: Antiviral activity against Zika virus infected in human RPE cells assessed as inhibition of virus-induced cytopathic effect measured at 48 hrs post-viral infection by CellTiter Glo assay; format: functional, organism-based; conditions: HRPE
[13] = tested on: Middle East respiratory syndrome-related coronavirus; assay: Antiviral activity against MERS-CoV Hu/Jordan-N3/2012 infected in African green monkey Vero E6 cells assessed as inhibition of viral replication treated for 1 hr prior to viral infection and measured after 48 hrs by ELISA; format: functional, organism-based; conditions: Hu/Jordan-N3/2012, Vero C1008
[14] = tested on: Human immunodeficiency virus 1; assay: Antiviral activity against HIV-1 infected in HEK293T cells assessed as inhibition of viral replication treated with compound 2 hrs prior to viral infection and measured after 24 hrs by flow cytometry; format: functional, organism-based; conditions: Human immunodeficiency virus 1, HEK-293T
Hepatitis C virus = assay: Antiviral activity against Hepatitis C virus assessed as inhibition of viral replication incubated for 3 days by Renilla luciferase based assay; format: functional, organism-based, Hepacivirus hominis; conditions: 72 h
SARS-CoV-2 [15] = assay: Antiviral activity against SARS-CoV-2 infected in African green monkey Vero E6 cells assessed as reduction in viral RNA copy number incubated for 24 hrs by real time RT-PCR analysis; format: functional, organism-based; conditions: Severe acute respiratory syndrome coronavirus 2, Vero C1008, 24 h

Row | Structure (SMILES) | CC50 (Vero) [nM] | EC50 (SARS-CoV-2 [1]) [nM] | MCC [2] [µM] | EC50 (SARS-CoV-2 [3]) [nM] | MCC at 72 h [4] [µM] | EC50 (Human betaherpesvirus 5 [5]) [nM] | EC50 (Human alphaherpesvirus 3 [6]) [nM] | EC50 (Human alphaherpesvirus 3 [7]) [nM] | EC50 (Human betaherpesvirus 5 [8]) [nM] | CC50 (HEL) [nM] | also measured
1 | CCN(CCO)CCCC(C)Nc1ccnc2cc(Cl)ccc12 (stereo not given) [HYDROXYCHLOROQUINE] | 36900 | 1740 | 100 | 8100 |  |  |  |  |  |  | 
2 | Nc1nc(O)c2ncn(COC(CO)CO)c2n1 [GANCICLOVIR] |  |  |  |  | 350 |  |  |  |  |  | 
3 | O=c1ccn([C@@H]2O[C@](F)(CO)[C@@H](O)C2(F)F)c(=O)[nH]1 |  |  |  |  | > 100 | > 100000 | > 100000 | > 100000 | > 100000 |  | 
4 | Nc1ccn([C@@H]2O[C@](F)(CO)[C@@H](O)C2(F)F)c(=O)n1 | 260 | 96 | 0.16 | 360 | 20 | 930 | 42 | 166 | 815 | 110 | selectivity ratio [9]: 2; Ratio (SARS-CoV-2 [10]): 20; selectivity ratio [11]: 2; selectivity ratio [12]: < 1
5 | Nc1ccn([C@@H]2O[C@H](CO)[C@@H](O)C2(F)F)c(=O)n1 [GEMCITABINE] | 4.3 | > 1.6 | 0.008 | > 3.2 | 20 | 53 | 28 | 54 | 74 | 3.6 | IC50 (Enterovirus C): 300 nM; EC50 (Influenza A virus): 68 nM; EC50 (rhinovirus A1B): 810 nM; EC50 (Zika virus): 10 nM; EC50 [13]: 1220 nM; EC50 [14]: 16.3 nM; EC50 (Hepatitis C virus): 12 nM; EC50 (SARS-CoV-2 [15]): 1240 nM
6 | Nc1ccn(C[C@@H](CO)OCP(=O)(O)O)c(=O)n1 [CIDOFOVIR] |  |  |  |  | 300 | 340 |  |  | 650 |  | 
7 | C[C@H](NP(=O)(OC[C@H]1O[C@@H](n2ccc(N)nc2=O)C(F)(F)[C@@H]1O)Oc1ccccc1)C(=O)OCc1ccccc1 (stereo not given in full) [FOSGEMCITABINE PALABENAMIDE] | 20 | > 12.8 | 0.048 | > 32 | > 100 | 32 | 74 | 89 | 66 | 340 | selectivity ratio [9]: 4; selectivity ratio [12]: 3
8 | CO[C@]1(CO)O[C@@H](n2ccc(N)nc2=O)C(F)(F)[C@@H]1O | > 100000 | ≥ 86200 | > 100 |  | > 100 | > 100000 | > 100000 | > 100000 | > 100000 |  | 
9 | CCC(CC)COC(=O)[C@H](C)N[P@](=O)(OC[C@H]1O[C@@](C#N)(c2ccc3c(N)ncnn23)[C@H](O)[C@@H]1O)Oc1ccccc1 | > 40000 | 1520 | > 40 | 5800 |  |  |  |  |  |  | 
10 | C[C@H](NP(=O)(OC[C@@]1(F)O[C@@H](n2ccc(N)nc2=O)C(F)(F)[C@@H]1O)Oc1ccccc1)C(=O)OCc1ccccc1 (stereo not given in full) | 1440 | 730 | 4 | ≥ 2400 | > 100 | 4000 | 2320 | 2840 | 15500 | 84400 | selectivity ratio [9]: 36; Ratio (SARS-CoV-2 [10]): 10; selectivity ratio [11]: < 2; selectivity ratio [12]: 29
11 | CO[C@]1(CO)O[C@@H](n2ccc(=O)[nH]c2=O)C(F)(F)[C@@H]1O |  |  |  |  | > 100 | > 100000 | > 100000 | > 100000 | > 100000 |  | 
12 | Nc1nc2c(ncn2COCCO)c(=O)[nH]1 [ACYCLOVIR] |  |  |  |  | > 440 |  |  |  |  | 424000 | 
13 | O=c1[nH]c(=O)n([C@H]2C[C@H](O)[C@@H](CO)O2)cc1/C=C/Br [BRIVUDINE] |  |  |  |  | > 300 |  | 36 | 6040 |  | > 300000 | selectivity ratio [9]: > 8330; selectivity ratio [12]: > 49
14 | CO[C@]1(COP(=O)(N[C@@H](C)C(=O)OCc2ccccc2)Oc2ccccc2)O[C@@H](n2ccc(N)nc2=O)C(F)(F)[C@@H]1O (stereo not given in full) | ≥ 93600 | ≥ 55100 | ≥ 100 | > 100000 | > 100 | > 100000 | > 100000 | > 100000 | > 100000 |  | 
